What all share (format): biochemical
In test [1] the target is T1, HsDHFR (human DHFR) (Homo sapiens, UniProt P00374).
T1 sequence (P00374 1-187): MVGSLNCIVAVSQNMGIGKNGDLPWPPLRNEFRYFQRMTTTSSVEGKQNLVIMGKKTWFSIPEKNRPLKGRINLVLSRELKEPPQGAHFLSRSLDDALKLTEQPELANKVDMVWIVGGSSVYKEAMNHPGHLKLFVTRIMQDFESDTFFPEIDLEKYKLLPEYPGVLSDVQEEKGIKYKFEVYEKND
Nature of the test: DHFR inhibition assay.

For test [2], the target named is T2, TbDHFR (T. brucei dihydrofolate reductase) (Trypanosoma brucei, UniProt Q27783). Nature of the test: DHFR inhibition assay.
T2 sequence (Q27783 whole entry): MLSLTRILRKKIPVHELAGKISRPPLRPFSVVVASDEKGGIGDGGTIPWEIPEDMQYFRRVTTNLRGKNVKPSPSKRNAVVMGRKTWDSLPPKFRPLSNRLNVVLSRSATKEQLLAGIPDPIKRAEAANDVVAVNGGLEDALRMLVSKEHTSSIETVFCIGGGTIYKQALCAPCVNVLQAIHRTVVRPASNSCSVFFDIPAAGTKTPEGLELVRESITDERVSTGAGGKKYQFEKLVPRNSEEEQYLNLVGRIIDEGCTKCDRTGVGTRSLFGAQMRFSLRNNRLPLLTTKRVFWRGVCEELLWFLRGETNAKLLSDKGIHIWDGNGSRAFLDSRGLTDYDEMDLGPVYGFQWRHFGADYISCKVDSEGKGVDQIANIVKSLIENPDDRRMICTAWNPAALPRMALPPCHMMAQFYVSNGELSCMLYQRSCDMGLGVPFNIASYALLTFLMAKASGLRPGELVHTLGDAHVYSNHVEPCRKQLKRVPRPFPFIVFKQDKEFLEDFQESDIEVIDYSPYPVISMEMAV
The target of test [3] is T1, HsDHFR (human DHFR). Nature of the test: DHFR inhibition assay. The note with it: unreliable: sample contaminated with ~25% of compound 33.
Test [4] has as its target T2, TbDHFR (T. brucei dihydrofolate reductase). Nature of the test: DHFR inhibition assay. Particulars: unreliable: sample contaminated with ~25% of compound 33.
Test [5] has as its target T3, TbPTR1 (T. brucei pteridine reductase 1) (Trypanosoma brucei, UniProt O76290).
T3 sequence (O76290 1-268): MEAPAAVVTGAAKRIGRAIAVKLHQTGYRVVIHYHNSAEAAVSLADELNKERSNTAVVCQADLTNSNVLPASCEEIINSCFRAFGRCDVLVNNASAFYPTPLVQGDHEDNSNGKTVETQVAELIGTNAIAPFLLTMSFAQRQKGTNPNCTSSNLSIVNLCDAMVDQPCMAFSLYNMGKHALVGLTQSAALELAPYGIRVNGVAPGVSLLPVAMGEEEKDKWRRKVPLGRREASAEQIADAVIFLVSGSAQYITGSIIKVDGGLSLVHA
Nature of the test: HPLC-based PTR1 assay.

In test [6] the target is T4, endogenous PTR1 in clarified T. brucei lysate (Trypanosoma brucei, UniProt O76290).
T4 sequence (O76290 1-268): T3 sequence (O76290 1-268)
Nature of the test: HPLC-based PTR1 assay.

`CCCOc1cccc2nc(N)n(Cc3ccc(Cl)c(Cl)c3)c12` [compound 30]: the IC50 (as a rule, the midpoint of a concentration-inhibition curve) was greater than 50 µM against HsDHFR (human DHFR) [1] and greater than 30 µM in test [2].

Take `Cc1cc2nc(N)n(Cc3ccc(Cl)c(Cl)c3)c2cc1C` [compound 34]: the IC50 (against HsDHFR (human DHFR) [1]; in test [2]) was greater than 30 µM in each case.

For `Nc1nc2c(OCc3ccccc3)cccc2n1Cc1ccc(Cl)c(Cl)c1` [compound 26], the half-inhibitory concentration (IC50) (against HsDHFR (human DHFR) [1]; in test [2]) was greater than 50 µM throughout.

As for `Nc1nc2c(Cl)cccc2n1Cc1ccc(Cl)c(Cl)c1` [compound 24], the figures for the IC50 (against HsDHFR (human DHFR) [1]; in test [2]) were greater than 50 µM and greater than 30 µM, respectively.

Regarding `Nc1nc2cccc(Cl)c2n1Cc1ccc(Cl)c(Cl)c1` [compound 29], the IC50 was greater than 50 µM against HsDHFR (human DHFR) [1] and greater than 30 µM in test [2].

For the compound `COc1cccc2c1nc(N)n2Cc1ccc(Cl)c(Cl)c1` [compound 28], the “HsDHFR IC50” value at HsDHFR (human DHFR) [3] was greater than 50 µM. Besides, the “TbDHFR IC50” value in test [4] was greater than 30 µM.

For `Nc1nc2cccc(OCc3ccccc3)c2n1Cc1ccc(Cl)c(Cl)c1` [compound 31], the IC50 (at HsDHFR (human DHFR) [1]; in test [2]) was greater than 50 µM throughout.

Consider `Nc1nc2c(-c3ccccc3)cccc2n1Cc1ccc(Cl)c(Cl)c1` [compound 27], for which the IC50 (on HsDHFR (human DHFR) [1]; in test [2]) was greater than 30 µM throughout.

On to `CCCOc1cccc2c1nc(N)n2Cc1ccc(Cl)c(Cl)c1` [compound 25], for which the IC50 at HsDHFR (human DHFR) [1] was greater than 50 µM; in test [2], greater than 30 µM.

Take `COc1cccc2nc(N)n(Cc3ccc(Cl)c(Cl)c3)c12` [compound 33]: the results for the concentration for half-maximal inhibition (IC50) (against HsDHFR (human DHFR) [1]; in test [2]) were greater than 50 µM and greater than 30 µM, respectively.

On to `Nc1nc2ccccc2n1Cc1ccc(Cl)c(Cl)c1` [compound 11], for which the IC50 (on HsDHFR (human DHFR) [1]; in test [2]) was greater than 50 µM throughout.

In the case of `Nc1nc2cccc(-c3ccccc3)c2n1Cc1ccc(Cl)c(Cl)c1` [compound 32], the IC50 in test [5] is 0.00099 ± 0.00013 µM; against HsDHFR (human DHFR) [1], greater than 50 µM; in test [6] it was 0.00088 ± 0.00013 µM; in test [2] it was greater than 50 µM.

Source of the values: PMC3047710 (Chemmedchem, 2010).
